Biological target: T1, Cytochrome P450 2A6 (CYP2A6) (Homo sapiens, UniProt P11509)
T1 sequence (P11509 1-494): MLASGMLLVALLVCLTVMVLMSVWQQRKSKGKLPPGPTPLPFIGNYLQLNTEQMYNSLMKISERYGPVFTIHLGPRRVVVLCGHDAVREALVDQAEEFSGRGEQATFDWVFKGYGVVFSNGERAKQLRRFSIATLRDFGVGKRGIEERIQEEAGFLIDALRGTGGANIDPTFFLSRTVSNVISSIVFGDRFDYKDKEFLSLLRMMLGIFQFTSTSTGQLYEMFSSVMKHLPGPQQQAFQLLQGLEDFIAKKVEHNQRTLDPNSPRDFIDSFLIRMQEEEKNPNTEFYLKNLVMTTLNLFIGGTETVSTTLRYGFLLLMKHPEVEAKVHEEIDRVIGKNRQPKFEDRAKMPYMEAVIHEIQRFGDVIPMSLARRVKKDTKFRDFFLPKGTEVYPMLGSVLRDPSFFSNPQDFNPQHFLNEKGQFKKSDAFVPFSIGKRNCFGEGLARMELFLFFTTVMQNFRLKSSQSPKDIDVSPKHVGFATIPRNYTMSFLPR
Experiment: Vivid CYP450 fluorescence inhibition assay with CYP2A6 baculosomes, 10-point dose-response
Format: biochemical

Row | IC50 [µM] | Structure (SMILES)
1 | 4.61 | CCOC(=O)COc1c(-c2ccccc2)oc2ccccc2c1=O [compound 2, Ethyl 2-((4-Oxo-2-phenyl-4H-chromen-3-yl)oxy)acetate]
2 | 37.9 | CCOC(=O)COc1ccccc1-c1cc(=O)c2ccccc2o1 [compound 1, Ethyl 2-(2-(4-Oxo-4H-chromen-2-yl)phenoxy)acetate]
3 | 1.57 | O=C(O)COc1ccccc1-c1cc(=O)c2ccccc2o1 [compound 6, 2-(2-(4-Oxo-4H-chromen-2-yl)phenoxy)acetic Acid]

From PMC10731637, “Design, Synthesis, and Biological Studies of Flavone-Based Esters and Acids as Potential P450 2A6 Inhibitors” (Chemical Research in Toxicology, 2023)
